From publication PMC11432795, “Mutagenesis of the Peptide Inhibitor of ASIC3 Channel Introduces Binding to Thumb Domain of ASIC1a but Reduces Analgesic Activity” (Marine Drugs, 2024)
“Also recorded” adds a separate entry of the source. Positions of bridges follow the written chain, without caps; N, C: chain ends. Residues, ends and D or L forms follow the SMILES beside them.

Legend:
[1] = system: rat ASIC1a E357A mutant channel; assay: Two-electrode voltage clamp, E357A mutant ASIC1a in X. laevis oocytes; format: cell-based; settings: 10 µM; pH 5.5 stimulus, conditioning pH 7.4, peptide 30 s; mean ± SEM, n = 5
Method: (§1) Figure 5 The pivotal role of residue D355 in the ASIC1a channel for the action of the A23K peptide ligand. (A,B) pH dependence of steady-state desensitization (A) and activation (B) in mutant channels (D355A and E357A) compared to the wild-type channel (wt). Each data point represents results from 5 cells. (C–E) Representative current traces illustrating the effects of A23K at a concentration of 10 µM on wt (C), D355A (D), and E357A (E) channels. Currents were evoked by a pH 5.5 stimulus following a conditioning pH of 7.4, with the peptide applied for 30 s preceding the pH stimulus. (F) Bar graph quantifying the effects depicted in (C,D) as a percentage of the corresponding control currents (n = 5). A value of 1.0, represented by a dotted line, corresponds to control measurements at pH 5.5 for each form of ASIC1a. The data are expressed as mean ± SEM; *** p < 0.001, **** p < 0.0001, ns non-significant vs. control, unpaired t-test.
(§2) To introduce D355A and E357A substitutions, we designed two pairs of primers. For D355A substitution, the forward primer sequence was 5′–[…]–3′, and the reverse primer (R2) for D355A was 5′–CTAGGAAGTCCAGGGCAG–3′. For E357A substitution, the forward primer sequence was 5′–[…]–3′, and the reverse primer for E357A was the same as for D355A (designated as “R2”). […]

[2] = All pain tests conducted (overall); format: in vivo, ICR mice; settings: i.m.
Method: Adult male ICR mice (Animal Breeding Facility Branch of Shemyakin–Ovchinnikov Institute of Bioorganic Chemistry, Russian Academy of Sciences, Pushchino, Russia), weighing 20–25 g, were utilized. Animals were housed under controlled conditions, with a room temperature of 23 ± 2 °C, a 12 h light–dark cycle, and ad libitum access to food and water. Test substances were dissolved in saline. Peptides (Ugr9-1 and A23K at doses of 0.002, 0.02, and 0.2 mg/kg) and saline (for the control group) were administered intramuscularly 60 min prior to testing.
The abdominal constriction test of visceral pain (acetic acid-induced writhing pain model) and hyperalgesia induced by complete Freund’s adjuvant (CFA-induced inflammatory pain model) were performed as previously described.
For the von Frey filaments test, mice were positioned in a plastic chamber with access to the inflamed hind paw surface and an electronic von Frey filament (BIO-EVF, Bioseb, Vitrolles, France) was applied with gradually increasing pressure until withdrawal. Data, expressed as the strength of the applied mechanical stimulus from three applications, were averaged, with intervals between exposures of at least 1 min.
Statistical analysis was conducted using analysis of variance (ANOVA) with post hoc Tukey’s test, and data are presented as mean ± standard deviation (S.D.).

[3] = system: rat ASIC1a D355A mutant channel; assay: Two-electrode voltage clamp, D355A mutant ASIC1a in X. laevis oocytes; format: cell-based; settings: 10 µM; pH 5.5 stimulus, conditioning pH 7.4, peptide 30 s; n = 5
Method: as §1, §2

[4] = system: human ASIC3 channels; settings: ref [18]; cited from earlier work
Source text: Peptide Ugr9-1 was originally identified as a negative modulator of human ASIC3 channels. […] Combining comparative analysis, molecular modeling techniques, and structural and functional studies, we generated two novel peptide variants derived from Ugr9-1 capable of modulating both ASIC3 and ASIC1a channels.

Structure (SMILES) | inhibitory effect on E357A mutant channel [1] [%] | analgesic effect compared to the wild-type peptide [2] | inhibitory effect on D355A mutant channel [3] | IC50 [4] [µM]
CC[C@H](C)[C@H](N)C(=O)N[C@@H](CO)C(=O)N[C@H](C(=O)N[C@@H](CC(=O)O)C(=O)N1CCC[C@H]1C(=O)N1CCC[C@H]1C(=O)N[C@H]1CSSC[C@@H]2NC(=O)[C@H](CC(N)=O)NC(=O)CNC(=O)[C@H](CO)NC(=O)CNC(=O)[C@H](CC(=O)O)NC(=O)[C@H](CCCNC(=N)N)NC(=O)[C@H](Cc3c[nH]cn3)NC(=O)[C@H](Cc3ccc(O)cc3)NC(=O)[C@H](CSSC[C@@H](C(=O)NCC(=O)N[C@@H](C)C(=O)N[C@H](C(=O)O)C(C)C)NC(=O)CNC(=O)[C@H](Cc3ccc(O)cc3)NC(=O)[C@H](CCCCN)NC(=O)[C@H](CC(=O)O)NC(=O)[C@H](Cc3ccc(O)cc3)NC(=O)[C@H](C(C)C)NC2=O)NC(=O)[C@H](Cc2ccccc2)NC(=O)[C@H](CCCNC(=N)N)NC1=O)[C@@H](C)CC [A23K] (H-ISIDPPCRFCYHRDGSGNCVYDKYGCGAV-OH; disulfide 7-19, 10-26) | 47.1 ± 7.7 | significantly less pronounced analgesic effect compared to the wild-type peptide | no significant effect; also recorded: entirely abolished | –
CC[C@H](C)[C@H](N)C(=O)N[C@@H](CO)C(=O)N[C@H](C(=O)N[C@@H](CC(=O)O)C(=O)N1CCC[C@H]1C(=O)N1CCC[C@H]1C(=O)N[C@H]1CSSC[C@@H]2NC(=O)[C@H](CC(N)=O)NC(=O)CNC(=O)[C@H](CO)NC(=O)CNC(=O)[C@H](CC(=O)O)NC(=O)[C@H](CCCNC(=N)N)NC(=O)[C@H](Cc3c[nH]cn3)NC(=O)[C@H](Cc3ccc(O)cc3)NC(=O)[C@H](CSSC[C@@H](C(=O)NCC(=O)N[C@@H](C)C(=O)N[C@H](C(=O)O)C(C)C)NC(=O)CNC(=O)[C@H](Cc3ccc(O)cc3)NC(=O)[C@H](C)NC(=O)[C@H](CC(=O)O)NC(=O)[C@H](Cc3ccc(O)cc3)NC(=O)[C@H](C(C)C)NC2=O)NC(=O)[C@H](Cc2ccccc2)NC(=O)[C@H](CCCNC(=N)N)NC1=O)[C@@H](C)CC [Ugr9-1] (H-ISIDPPCRFCYHRDGSGNCVYDAYGCGAV-OH; disulfide 7-19, 10-26) | – | – | – | 10
